Test results taken from the supplement of paper PMC9103864.

Columns and labels:
[1] = tested on: BMSC (primary human bone marrow mesenchymal stromal cells); experiment: drug sensitivity score (DSS); higher = more sensitive
[2] = tested on: BMSC (primary human bone marrow mesenchymal stromal cells); experiment: absolute EC50 for viability; higher = less sensitive

CN1CC[C@@H](NC(=O)Nc2ccc(C#N)cc2)C[C@@H]1c1nc2ccccc2[nH]1 [Glasdegib]
drug sensitivity score [1]: 0 | absolute EC50 for viability [2]: > 1000 nM

O=C(Nc1nc2cccc(-c3ccc(CN4CCS(=O)(=O)CC4)cc3)n2n1)C1CC1 [Filgotinib]
drug sensitivity score [1]: 2.3 | absolute EC50 for viability [2]: > 10000 nM

CC1(COc2ccc3c(c2)ncn3-c2ccc3cccc(N4CCC(N)CC4)c3n2)COC1 [Crenolanib]
drug sensitivity score [1]: 8.5 | absolute EC50 for viability [2]: 1840 nM

CN(C)Cc1c(C(=O)NCCOc2ccc(C(=O)NO)cc2)oc2ccccc12 [Abexinostat]
drug sensitivity score [1]: 10.1 | absolute EC50 for viability [2]: 1280 nM

O=C(Nc1cc(Cl)cc2c1[nH]c1cnccc12)c1cccnc1 [PS-1145]
drug sensitivity score [1]: 0 | absolute EC50 for viability [2]: > 25000 nM

O=C(c1ccc(F)c(F)c1Nc1ccc(I)cc1F)N1CC(O)([C@@H]2CCCCN2)C1 [Cobimetinib]
drug sensitivity score [1]: 4.3 | absolute EC50 for viability [2]: > 1000 nM

CN1CC[C@H](c2c(O)cc(O)c3c(=O)cc(-c4ccccc4Cl)oc23)[C@H](O)C1 [Alvocidib]
drug sensitivity score [1]: 10.8 | absolute EC50 for viability [2]: 739 nM

CO[C@H]1C[C@@H]2CC[C@@H](C)[C@@](O)(O2)C(=O)C(=O)N2CCCC[C@H]2C(=O)O[C@H]([C@H](C)C[C@@H]2CC[C@@H](OCCO)[C@H](OC)C2)CC(=O)[C@H](C)/C=C(\C)[C@@H](O)[C@@H](OC)C(=O)[C@H](C)C[C@H](C)/C=C/C=C/C=C/1C [Everolimus]
drug sensitivity score [1]: 5.2 | absolute EC50 for viability [2]: > 100 nM

CCC/C=C/C=C/C(=O)O[C@H]1/C(=C/C(=O)OC)C[C@H]2C[C@H]([C@@H](C)O)OC(=O)C[C@H](O)C[C@@H]3C[C@H](OC(C)=O)C(C)(C)[C@](O)(C[C@@H]4C/C(=C/C(=O)OC)C[C@H](/C=C/C(C)(C)[C@]1(O)O2)O4)O3 [Bryostatin 1]
drug sensitivity score [1]: 0 | absolute EC50 for viability [2]: > 100 nM

CCS(=O)(=O)Nc1ccc(Oc2ccc(F)cc2F)c(-c2cn(C)c(=O)c3[nH]ccc23)c1 [Mivebresib]
drug sensitivity score [1]: 13 | absolute EC50 for viability [2]: 2710 nM

CC[C@H](C)C(=O)O[C@H]1C[C@@H](C)C=C2C=C[C@H](C)[C@H](CC[C@@H]3C[C@@H](O)CC(=O)O3)[C@H]21 [Lovastatin]
drug sensitivity score [1]: 0 | absolute EC50 for viability [2]: > 10000 nM

CC1(C)NC(=O)N(c2ccc([N+](=O)[O-])c(C(F)(F)F)c2)C1=O [Nilutamide]
drug sensitivity score [1]: 0 | absolute EC50 for viability [2]: > 10000 nM

CCS(=O)(=O)N1CC(CC#N)(n2cc(-c3ncnc4[nH]ccc34)cn2)C1 [Baricitinib]
drug sensitivity score [1]: 0.1 | absolute EC50 for viability [2]: > 2500 nM

CCN(CC)CCNC(=O)c1c(C)[nH]c(/C=C2\C(=O)Nc3ccc(F)cc32)c1C [Sunitinib]
drug sensitivity score [1]: 5.6 | absolute EC50 for viability [2]: > 1000 nM

Nc1ccn([C@@H]2O[C@H](CO)[C@@H](O)C2(F)F)c(=O)n1 [Gemcitabine]
drug sensitivity score [1]: 4.5 | absolute EC50 for viability [2]: > 1000 nM

COc1cc2nccc(Oc3ccc(NC(=O)Nc4cc(C)on4)c(Cl)c3)c2cc1OC [Tivozanib]
drug sensitivity score [1]: 7.6 | absolute EC50 for viability [2]: > 10000 nM

CN[C@@H](C)C(=O)N[C@H](C(=O)N1CCC[C@H]1c1nc(C(=O)c2ccc(F)cc2)cs1)C1CCCCC1 [NVP-LCL161]
drug sensitivity score [1]: 0 | absolute EC50 for viability [2]: > 25000 nM

CN(C)C(=O)c1cc2cnc(Nc3ccc(N4CCNCC4)cn3)nc2n1C1CCCC1 [Ribociclib]
drug sensitivity score [1]: 2.2 | absolute EC50 for viability [2]: > 10000 nM

CC(C)N(C[C@H]1O[C@@H](n2cnc3c(N)ncnc32)[C@H](O)[C@@H]1O)[C@H]1C[C@@H](CCc2nc3cc(C(C)(C)C)ccc3[nH]2)C1 [Pinometostat]
drug sensitivity score [1]: 0 | absolute EC50 for viability [2]: > 1000 nM

Cc1cccc(CC(=O)N2CCc3c2ccc(-c2cn(C)c4ncnc(N)c24)c3F)n1
drug sensitivity score [1]: 0 | absolute EC50 for viability [2]: > 2500 nM

COc1cc(OC)cc(N(CCNC(C)C)c2ccc3ncc(-c4cnn(C)c4)nc3c2)c1 [Erdafitinib]
drug sensitivity score [1]: 2.2 | absolute EC50 for viability [2]: > 1000 nM

Cc1cc(C)c(CNC(=O)c2cc(-c3ccc(CN4CCOCC4)cc3)cc3c2cnn3C2CCCC2)c(=O)[nH]1 [EPZ-5687]
drug sensitivity score [1]: 0 | absolute EC50 for viability [2]: 9930 nM

CCOC(=O)CCNc1cc(N2CCc3ccccc3CC2)nc(-c2ccccn2)n1 [GSK-J4]
drug sensitivity score [1]: 2.8 | absolute EC50 for viability [2]: 73000 nM

O=C(O)CCCCC(CCSCc1ccccc1)SCc1ccccc1 (configuration not stated) [CPI-613]
drug sensitivity score [1]: 0 | absolute EC50 for viability [2]: > 10000 nM

O=C1CN2Cc3c(ccc(Cl)c3Cl)N=C2N1 [Anagrelide]
drug sensitivity score [1]: 0 | absolute EC50 for viability [2]: > 10000 nM

O=C(O)CC1CC(c2ccccc2)=NO1 (configuration not stated) [VGX-1027]
drug sensitivity score [1]: -0.1 | absolute EC50 for viability [2]: > 10000 nM

Nc1nc(Cl)nc2c1ncn2[C@@H]1O[C@H](CO)[C@@H](O)[C@@H]1F [Clofarabine]
drug sensitivity score [1]: 11.4 | absolute EC50 for viability [2]: 739 nM

CO[C@@H](C(=O)N1Cc2[nH]nc(NC(=O)c3ccc(N4CCN(C)CC4)cc3)c2C1)c1ccccc1 [Danusertib]
drug sensitivity score [1]: 3.6 | absolute EC50 for viability [2]: > 10000 nM

COc1cccc2c1C(=O)c1c(O)c3c(c(O)c1C2=O)C[C@@](O)(/C(CO)=N/NC(=O)CCCCCN1C(=O)C=CC1=O)C[C@@H]3O[C@H]1C[C@H](N)[C@H](O)[C@H](C)O1 [Aldoxorubicin]
drug sensitivity score [1]: 7.3 | absolute EC50 for viability [2]: 944 nM

C[C@@]1(C(=O)Nc2ccc(F)nc2)CCCN1c1nc(Nc2cc(C3CC3)n[nH]2)c2cccn2n1
drug sensitivity score [1]: 9.3 | absolute EC50 for viability [2]: 7740 nM

N#CC(c1ccnc(OCc2ccc(CN3CCOCC3)cc2)n1)c1nc2ccccc2s1 (configuration not stated) [Bentamapimod]
drug sensitivity score [1]: 0 | absolute EC50 for viability [2]: > 10000 nM

CC(=O)O[C@@]12CO[C@@H]1C[C@H](O)[C@@]1(C)C(=O)[C@H](O)C3=C(C)[C@@H](OC(=O)[C@H](O)[C@@H](NC(=O)OC(C)(C)C)c4ccccc4)C[C@@](O)([C@@H](OC(=O)c4ccccc4)[C@H]21)C3(C)C [Docetaxel]
drug sensitivity score [1]: 5 | absolute EC50 for viability [2]: > 1000 nM

CCN(CC)CCOc1ccc(C(=C(Cl)c2ccccc2)c2ccccc2)cc1 [Clomifene]
drug sensitivity score [1]: 0.9 | absolute EC50 for viability [2]: > 10000 nM

CC(C)(C#N)c1cc(Cn2cncn2)cc(C(C)(C)C#N)c1 [Anastrozole]
drug sensitivity score [1]: 0 | absolute EC50 for viability [2]: > 10000 nM

CS(=O)(=O)CCNCc1ccc(-c2ccc3ncnc(Nc4ccc(OCc5cccc(F)c5)c(Cl)c4)c3c2)o1 [Lapatinib]
drug sensitivity score [1]: 0.1 | absolute EC50 for viability [2]: > 1000 nM

CN[C@@H](C)C(=O)N[C@H]1CN(C(=O)CC(C)C)CC[C@H]2CC[C@@H](C(=O)NC(c3ccccc3)c3ccccc3)N2C1=O [AT-406]
drug sensitivity score [1]: 0 | absolute EC50 for viability [2]: > 10000 nM

CCS(=O)(=O)c1cccc(-c2cc(C(=O)NC3CCN(C)CC3)c(C)c3[nH]c4ncc(C)cc4c23)c1 [TAK-901]
drug sensitivity score [1]: 5.9 | absolute EC50 for viability [2]: 265 nM

CC[C@@]1(O)C(=O)OCc2c1cc1n(c2=O)Cc2cc3c(CN(C)C)c(O)ccc3nc2-1 [Topotecan]
drug sensitivity score [1]: 4.4 | absolute EC50 for viability [2]: > 10000 nM

C[C@H]1CNCCCN1S(=O)(=O)c1cccc2cncc(F)c12 [Ripasudil]
drug sensitivity score [1]: 1.1 | absolute EC50 for viability [2]: > 10000 nM

O=C(NOC[C@H](O)CO)c1ccc(F)c(F)c1Nc1ccc(I)cc1F [Mirdametinib]
drug sensitivity score [1]: 2.1 | absolute EC50 for viability [2]: > 1000 nM

COC[C@H](NC(=O)c1cnc(C)s1)C(=O)N[C@@H](COC)C(=O)N[C@@H](Cc1ccccc1)C(=O)[C@@]1(C)CO1 [Oprozomib]
drug sensitivity score [1]: 10 | absolute EC50 for viability [2]: 304 nM

CCOCc1nc2c(N)nc3ccccc3c2n1CC(C)(C)O [Resiquimod]
drug sensitivity score [1]: 0 | absolute EC50 for viability [2]: > 10000 nM

CCN(CC)CCCC(C)Nc1c2ccc(Cl)cc2nc2ccc(OC)cc12 (configuration not stated) [Mepacrine]
drug sensitivity score [1]: 17.7 | absolute EC50 for viability [2]: 1580 nM

Cc1c(C(=O)Nc2ccc(N3C[C@@H](C)O[C@@H](C)C3)nc2)cccc1-c1ccc(OC(F)(F)F)cc1 [Sonidegib]
drug sensitivity score [1]: 0 | absolute EC50 for viability [2]: > 10000 nM

O=C(NOCCO)c1ccc2cncn2c1Nc1ccc(I)cc1F [GDC-0623]
drug sensitivity score [1]: 0 | absolute EC50 for viability [2]: > 2500 nM

CC/C(=C(\c1ccccc1)c1ccc(OCCN(C)C)cc1)c1ccccc1 [Tamoxifen]
drug sensitivity score [1]: 0 | absolute EC50 for viability [2]: > 10000 nM

CC[C@@](C)(Nc1ccnc(-c2c[nH]c3ncccc23)n1)C(=O)NCC(F)(F)F [Decernotinib]
drug sensitivity score [1]: 0.4 | absolute EC50 for viability [2]: > 10000 nM

CC[C@H](CC#N)OC(=O)N[C@@H](C)c1cccc(NC(=O)Nc2ccc(-c3cnco3)c(OC)c2)c1 [AVN944]
drug sensitivity score [1]: 3.9 | absolute EC50 for viability [2]: > 10000 nM

O=C(Nc1cnn2ccc(N3CCC[C@@H]3c3cc(F)ccc3F)nc12)N1CC[C@H](O)C1 [Larotrectinib]
drug sensitivity score [1]: 0 | absolute EC50 for viability [2]: > 1000 nM

Nc1nc(Nc2ccc3c(c2)CC[C@@H](N2CCCC2)CC3)nn1-c1cc2c(nn1)-c1ccccc1CCC2 [BGB324]
drug sensitivity score [1]: 6.7 | absolute EC50 for viability [2]: 2490 nM

CCN(CC)Cc1ccc2cc(COC(=O)Nc3ccc(C(=O)NO)cc3)ccc2c1 [Givinostat]
drug sensitivity score [1]: 3.6 | absolute EC50 for viability [2]: > 1000 nM

Nc1nc(OCc2cc(Br)cs2)c2[nH]cnc2n1 [Lomeguatrib]
drug sensitivity score [1]: 0 | absolute EC50 for viability [2]: > 10000 nM

CCC(C)(C)C(=O)O[C@H]1C[C@@H](C)C=C2C=C[C@H](C)[C@H](CC[C@@H]3C[C@@H](O)CC(=O)O3)[C@H]21 [Simvastatin]
drug sensitivity score [1]: 2.4 | absolute EC50 for viability [2]: > 10000 nM

Nc1cccc2c1CN(C1CCC(=O)NC1=O)C2=O (configuration not stated) [Lenalidomide]
drug sensitivity score [1]: 0 | absolute EC50 for viability [2]: > 100000 nM

Cc1cc(Nc2cc(CN3CCOCC3)c3nc(C)c(Cc4ccc(Cl)cc4F)n3n2)n[nH]1 [Gandotinib]
drug sensitivity score [1]: 6.3 | absolute EC50 for viability [2]: 2490 nM

O=C(CCCCCCNC(=O)c1cnc(N(c2ccccc2)c2ccccc2)nc1)NO [Rocilinostat]
drug sensitivity score [1]: 1.8 | absolute EC50 for viability [2]: > 10000 nM
